Measured values published in patent publication US20250326777A1, “COMPOUNDS, COMPOSITIONS AND METHODS THEREOF” (HEPAITECH (BEIJING) BIOPHARMA TECHNOLOGY CO., LTD., priority 2022, published 2025).

The compounds below were run against T1, human MRGPRX4 (Homo sapiens, UniProt Q96LA9) (assay: MRGPRX4 antagonist calcium (FLIPR, Fluo-8) assay in HEK293T cells stably expressing human MRGPRX4, agonist 0.2 μM deoxycholic acid-3-phosphoric acid). Conditions: HEK293T cells stably expressing human MRGPRX4; antagonist mode; top conc. 30 μM, ten 3-fold serial dilutions; C may also mean <40% inhibition at 2 μM; read-out: Antagonist activity (IC50 class).
T1 construct: expressed in transfected cells
T1 sequence (Q96LA9 whole entry): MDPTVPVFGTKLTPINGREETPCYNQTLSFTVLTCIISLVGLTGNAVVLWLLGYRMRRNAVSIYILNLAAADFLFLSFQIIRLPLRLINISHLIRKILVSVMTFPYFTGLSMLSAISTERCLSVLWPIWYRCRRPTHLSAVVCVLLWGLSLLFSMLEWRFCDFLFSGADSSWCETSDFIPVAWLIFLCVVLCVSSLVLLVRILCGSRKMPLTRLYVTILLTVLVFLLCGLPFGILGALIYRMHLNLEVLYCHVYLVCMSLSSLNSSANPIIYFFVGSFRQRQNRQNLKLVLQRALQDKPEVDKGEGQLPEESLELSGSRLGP
Type: cell-based
Method: HEK293T cells stably expressing human MRGPRX4 were cultured in DMEM medium supplements with 10% FBS, 100 U/mL penicillin-streptomycin, 20 mM HEPES and 1 μg/mL puromycin at 37° C. with 5% (v/v) CO2. One day before test, the cells were detached using TrypLE™ Express and counted using cell counter. In a 384-well plate cells were seeded at a density of 20,000 cells/well in 20 uL/well planting medium (DMEM medium supplements with 5% FBS, 100 U/mL penicillin-streptomycin and 20 mM HEPES), and incubated overnight at 37° C. with 5% (v/v) CO2. On the day of experiments, the dye solution, prepared following the manufacture's instruction of the Screen Quest™ Fluo-8 No Wash Calcium Assay Kit, was added to each well (20 μL/well) of the cell plate. The cell plate was incubated at 25° C. for 1 hour. Test compounds in different doses were transferred to the cell plate by FLIPR and the plate was kept in the dark at 25° C. for 30 minutes. The agonist solution, 0.2 μM of deoxycholic acid-3-phosphoric acid in assay buffer, was added to each well of the plate. The plate was read for 160 sec with 1 sec interval to obtain data of antagonist mode in FLIPR. For various compounds, IC50 values were calculated by fitting % inhibition against log of compound concentrations (top conc. 30 μM, ten 3-fold serial dilutions) with Hill equation using XLfit. […] Those skilled in the art appreciate that IC50 of various compounds can be assessed in accordance with the present disclosure.
Work on `O=C(O)c1cccc(C2Cc3cc(Cl)ccc3O2)c1F` (stereo not shown) [Example 63] yielded an IC50 of 1 to 10 µM.
`O=C(O)c1cc(-c2ccccc2)cc(C2Cc3cc(C(F)(F)F)ccc3O2)c1` (stereo not shown) [Example 64] was tested, and the IC50 was > 10 µM.
In the case of `O=C(O)c1cc(C2CCCC2)cc(C2Cc3cc(C(F)(F)F)ccc3O2)c1` (stereo not shown) [Example 65], the IC50 is reported as > 10 µM.
`O=C(O)c1cc(C2CC2)cc(C2Cc3cc(C(F)(F)F)ccc3O2)c1` (stereo not shown) [Example 66] gave an IC50 of 1 to 10 µM.
With `Cc1cc(C(=O)O)cc(C2Cc3cc(C(F)(F)F)ccc3O2)c1` (stereo not shown) [Example 67] the IC50 was 1 to 10 µM.
In the case of `Cc1c(C(=O)O)cccc1C1Cc2cc(C(F)(F)F)ccc2O1` (stereo not shown) [Example 68], the IC50 is reported as > 10 µM.
In the case of `Cn1cc(-c2cc(C(=O)O)cc(C3Cc4cc(C(F)(F)F)ccc4O3)c2)cn1` (stereo not shown) [Example 69], the IC50 is reported as > 10 µM.
In the case of `CCOP(=O)(OCC)c1ccc(-c2cc3ccc(C(F)(F)F)cc3n2C)cc1` [Example 70, diethyl(4-(1-methyl-6-(trifluoromethyl)-1H-indol-2-yl)phenyl)phosphonate], the IC50 is reported as > 10 µM.
`Cn1c(-c2ccc(P(=O)(O)O)cc2)cc2ccc(C(F)(F)F)cc21` [Example 71] was tested, and the IC50 was > 10 µM.
With `CCOP(=O)(O)c1ccc(-c2cc3ccc(C(F)(F)F)cc3n2C)cc1` [Example 72] the IC50 was > 10 µM.
For `NC(=O)c1cccc(C2Cc3cc(C(F)(F)F)ccc3O2)c1F` (stereo not shown) [Example 73], the IC50 was > 10 µM.
`CNC(=O)c1cccc(C2Cc3cc(C(F)(F)F)ccc3O2)c1F` (stereo not shown) [Example 74] was tested, and the IC50 was > 10 µM.
In the case of `CN(C)C(=O)c1cccc(C2Cc3cc(C(F)(F)F)ccc3O2)c1F` (stereo not shown) [Example 75], the IC50 is reported as > 10 µM.
With `O=C(O)c1cccc(C2CCc3cc(C(F)(F)F)ccc3O2)c1F` (stereo not shown) [Example 76] the IC50 was > 10 µM.
With `O=C(O)c1cccc(C2Cc3c(cccc3C(F)(F)F)O2)c1F` (stereo not shown) [Example 77] the IC50 was > 10 µM.
Work on `O=C(O)c1cccc(C2Cc3cc(OC(F)(F)F)ccc3O2)c1F` (stereo not shown) [Example 78] yielded an IC50 of 1 to 10 µM.
`O=C(O)c1cccc(C2Cc3cc(F)ccc3O2)c1F` (stereo not shown) [Example 79] was tested, and the IC50 was > 10 µM.
With `N#Cc1ccc2c(c1)CC(c1cccc(C(=O)O)c1F)O2` (stereo not shown) [Example 80] the IC50 was > 10 µM.
`O=C(O)c1cccc(C2Cc3cc(F)c(F)cc3O2)c1F` (stereo not shown) [Example 81] was tested, and the IC50 was > 10 µM.
In the case of `O=C(O)c1cccc(C2Cc3cc(F)cc(F)c3O2)c1F` (stereo not shown) [Example 82], the IC50 is reported as > 10 µM.
`O=C(O)c1cccc(C2Cc3cccc(C(F)(F)F)c3O2)c1F` (stereo not shown) [Example 83] was tested, and the IC50 was > 10 µM.
For `O=C(O)c1cccc(C2Cc3cc(F)cc(Cl)c3O2)c1F` (stereo not shown) [Example 84], the IC50 was > 10 µM.
For `O=C(O)c1c(F)ccc(C2Cc3cc(C(F)(F)F)ccc3O2)c1F` (stereo not shown) [Example 85], the IC50 was > 10 µM.
`CC1(c2cccc(C(=O)O)c2F)Cc2cc(C(F)(F)F)ccc2O1` (stereo not shown) [Example 86] was tested, and the IC50 was 1 to 10 µM.
For `O=C(O)c1cccc(C2Cc3cc(C(F)(F)F)ccc3O2)c1F` (stereo not shown) [Example 87], the IC50 was > 10 µM.
